Measured values taken from patent US9155778B2, “Tripeptides that down regulate the activity of plasma membrane transporters including sodium-D-glucose cotransporter SgIt1” (JULIUS-MAXMILLIANS-UNIVERSITAT WURZBURG, priority 2005, dated 2015).

How the values were obtained:
[1] = molecular target: hOCT2 (Homo sapiens, UniProt O15244); details: intracellular AMG 0.1 mM, <0.01 mM or 10 mM
Procedure: Corresponding measurements were performed in the presence of intracellular AMG concentrations of 0.1 mM, <0.01 mM or 10 mM.

[2] = molecular target: T1, rbSGLT1 (Oryctolagus cuniculus, UniProt P11170); assay: rbSGLT1 expressed [14C]AMG uptake in oocytes after peptide injection; format: cell-based, rabbit; details: 50 nl containing 3 mM of each peptide, 30 min, 50 μM [14C]AMG; compared with hSGLT1
T1 construct: expressed in transfected cells; host or cells: Xenopus laevis oocytes (cRNA injection)
T1 sequence (P11170 1-662): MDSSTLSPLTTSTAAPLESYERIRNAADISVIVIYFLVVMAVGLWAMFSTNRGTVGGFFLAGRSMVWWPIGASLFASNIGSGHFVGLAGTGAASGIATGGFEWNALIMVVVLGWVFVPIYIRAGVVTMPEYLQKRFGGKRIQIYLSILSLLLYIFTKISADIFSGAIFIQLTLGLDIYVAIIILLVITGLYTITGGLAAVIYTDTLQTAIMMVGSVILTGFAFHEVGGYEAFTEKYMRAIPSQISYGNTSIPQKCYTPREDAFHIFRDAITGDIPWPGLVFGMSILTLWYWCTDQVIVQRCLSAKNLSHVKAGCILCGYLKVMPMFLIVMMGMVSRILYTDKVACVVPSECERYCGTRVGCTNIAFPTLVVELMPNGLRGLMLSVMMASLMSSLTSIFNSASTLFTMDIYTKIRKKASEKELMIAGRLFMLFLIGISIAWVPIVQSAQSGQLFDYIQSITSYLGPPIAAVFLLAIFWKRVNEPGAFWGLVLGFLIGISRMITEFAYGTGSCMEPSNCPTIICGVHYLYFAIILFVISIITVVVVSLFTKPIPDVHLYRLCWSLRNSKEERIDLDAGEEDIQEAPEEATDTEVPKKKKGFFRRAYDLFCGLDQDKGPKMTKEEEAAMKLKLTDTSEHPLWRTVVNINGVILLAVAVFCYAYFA
Procedure: (§1) The oocytes were incubated for three days at 16° C. in ORi buffer (in mM: 5 HEPES-Tris, pH 7.4, 100 NaCl, 3 KCl, 2 CaCl2, and 1 MgCl2). […] The oocytes were superfused with Ori buffer titrated to pH 6.5, the membrane potential of the oocytes was clamped to −40 mV, and inward current induced by superfusion with Ori buffer (pH 6.5) containing 5 mM of a control dipeptide or 5 mM of the tested tripeptide was measured. • (D) Expression and Purification of hRS1
To develop drugs on the basis of the identified peptides animal models are required.

[3] = molecular target: SGLT1 (Mus musculus, UniProt Q8C3K6); details: 60 min pre-incubation, pH 6.5, 3 mM QCP, 0.1 mM D-glucose
Chain of SGLT1 (Q8C3K6 whole entry): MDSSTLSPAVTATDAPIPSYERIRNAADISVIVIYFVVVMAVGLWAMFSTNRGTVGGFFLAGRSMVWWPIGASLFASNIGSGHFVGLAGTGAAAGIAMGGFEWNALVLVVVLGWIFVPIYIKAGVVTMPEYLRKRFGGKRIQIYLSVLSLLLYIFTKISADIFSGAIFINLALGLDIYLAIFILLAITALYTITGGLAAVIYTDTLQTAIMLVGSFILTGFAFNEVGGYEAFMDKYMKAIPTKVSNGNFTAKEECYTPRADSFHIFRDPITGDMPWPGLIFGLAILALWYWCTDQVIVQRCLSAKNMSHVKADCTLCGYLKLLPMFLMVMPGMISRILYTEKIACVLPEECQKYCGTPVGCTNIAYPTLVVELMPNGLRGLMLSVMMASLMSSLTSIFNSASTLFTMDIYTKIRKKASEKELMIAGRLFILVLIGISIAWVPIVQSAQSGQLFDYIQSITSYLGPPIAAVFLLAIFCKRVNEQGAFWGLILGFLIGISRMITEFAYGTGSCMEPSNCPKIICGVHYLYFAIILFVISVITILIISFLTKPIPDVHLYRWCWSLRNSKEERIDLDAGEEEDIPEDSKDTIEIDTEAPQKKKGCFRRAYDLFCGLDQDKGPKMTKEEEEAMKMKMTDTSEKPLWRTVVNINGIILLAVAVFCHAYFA
Procedure: Walls of small intestinal mucosa from mice are inserted into an Ussing chamber and the SGLT1 mediated transepitehila currents are measured that are induced by addition of 0.1 mM D-glucose to the mucosal side. […] After washing glucose-induced transepithelial currents are measured.

[4] = drinking water pH 6.0 with 10 mM QCP, 2 months, standard chow or sugar low diet
Excerpt: The body weight development with and without peptide treatment is compared over 2 months. […] In corresponding experiments, rabbits are to be employed.

[5] = molecular target: T2, hPEPT1 (Homo sapiens, UniProt P46059); assay: Electrogenic peptide transport by hPEPT1 in oocytes, two-electrode voltage clamp; format: cell-based; details: pH 6.5
T2 construct: expressed in transfected cells; host or cells: Xenopus laevis oocytes (30 ng cRNA per oocyte)
T2 sequence (P46059 1-708): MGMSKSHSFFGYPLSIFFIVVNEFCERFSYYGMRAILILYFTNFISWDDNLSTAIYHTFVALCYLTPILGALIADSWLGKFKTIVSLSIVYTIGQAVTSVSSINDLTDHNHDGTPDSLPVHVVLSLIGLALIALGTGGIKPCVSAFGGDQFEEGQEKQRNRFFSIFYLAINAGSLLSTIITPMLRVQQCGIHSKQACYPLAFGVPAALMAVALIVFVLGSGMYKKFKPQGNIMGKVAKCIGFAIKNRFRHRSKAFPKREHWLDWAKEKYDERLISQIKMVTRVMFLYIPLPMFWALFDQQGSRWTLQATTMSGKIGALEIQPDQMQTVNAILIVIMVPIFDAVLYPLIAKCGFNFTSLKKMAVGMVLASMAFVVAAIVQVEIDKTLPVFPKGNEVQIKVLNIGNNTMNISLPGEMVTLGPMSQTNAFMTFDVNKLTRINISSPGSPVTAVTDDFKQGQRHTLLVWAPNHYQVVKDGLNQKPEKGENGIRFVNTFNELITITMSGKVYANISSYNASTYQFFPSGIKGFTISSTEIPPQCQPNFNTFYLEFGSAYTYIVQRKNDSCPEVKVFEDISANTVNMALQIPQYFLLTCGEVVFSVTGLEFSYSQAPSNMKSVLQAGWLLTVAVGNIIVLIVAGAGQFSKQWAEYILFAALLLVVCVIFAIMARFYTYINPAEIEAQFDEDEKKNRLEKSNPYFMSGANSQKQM
Procedure: as §1

[6] = molecular target: T3, hSGLT1 (Homo sapiens, UniProt P13866); assay: [14C]AMG uptake in oocytes after incubation with tripeptide in the medium; format: cell-based; details: pH 6.5
T3 construct: expressed in transfected cells; host or cells: Xenopus laevis oocytes (cRNA injection)
T3 sequence (P13866 1-664): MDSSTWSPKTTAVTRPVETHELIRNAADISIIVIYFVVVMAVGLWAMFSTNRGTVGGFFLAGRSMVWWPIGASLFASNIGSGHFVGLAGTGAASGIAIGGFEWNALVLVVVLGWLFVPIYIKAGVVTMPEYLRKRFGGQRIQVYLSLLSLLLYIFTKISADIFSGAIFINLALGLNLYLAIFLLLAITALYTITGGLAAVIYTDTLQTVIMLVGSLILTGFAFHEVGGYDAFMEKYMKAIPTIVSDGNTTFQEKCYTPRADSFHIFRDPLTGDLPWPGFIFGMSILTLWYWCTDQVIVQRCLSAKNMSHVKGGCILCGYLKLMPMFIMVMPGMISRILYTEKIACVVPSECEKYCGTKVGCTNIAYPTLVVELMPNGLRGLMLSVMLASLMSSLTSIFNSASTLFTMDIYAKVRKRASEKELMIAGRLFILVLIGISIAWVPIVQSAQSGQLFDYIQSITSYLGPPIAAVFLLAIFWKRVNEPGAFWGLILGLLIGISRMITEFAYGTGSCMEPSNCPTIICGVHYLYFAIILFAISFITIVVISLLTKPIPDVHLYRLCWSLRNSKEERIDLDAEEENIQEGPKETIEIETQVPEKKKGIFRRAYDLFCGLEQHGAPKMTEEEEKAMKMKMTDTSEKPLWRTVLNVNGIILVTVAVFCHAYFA
Procedure: In a different experimental setup, oocytes were injected with SGLT1 cRNA (2.5 ng per oocyte) or with hSGLT1 cRNA (2.5 ng per oocyte) plus hPEPT1 cRNA (10 ng per oocyte) and the oocytes were incubated 3 days for expression. Thereafter the oocytes were incubated 30 min with Ori buffer adjusted to pH 6.5 or with Ori buffer adjusted to pH 6.5 containing 3 mM of the tested tripeptide. Thereafter oocytes were washed with Ori buffer (pH 7.4) and uptake of [^14C]AMG was measured. • (F) Measurements of [^14C]AMG Uptake
Uptake measurements were performed as described (Veyhl (2003), J. Membrane Biol., 196, 71-81). Oocytes were incubated for 15 min at room temperature in ORi buffer containing 50 μM [^14C]AMG without or with 100 μM of the SGLT1 inhibitor phlorizin. The uptake was blocked and oocytes were washed with ice cold Ori buffer containing 100 μM phlorizin. Radioactivity in the oocytes was measured by liquid scintillation counting.
Thereafter the oocytes were washed with neutral Ori buffer and the hSGLT1 expressed uptake of 50 μM [^14C]AMG was measured (FIG. 7). […] Incubation of oocytes expressing hSGLT1 plus hPEPT1 with PCQ had no effect on the expressed uptake of [^14C]AMG.

[7] = molecular target: T3, hSGLT1; assay: hSGLT1 expressed [14C]AMG uptake in Xenopus oocytes after injection of hRS1 protein or peptides; format: cell-based
[8] = tested on: sodium dependent amino acid transporters; details: 60 min, pH 6.5, 3 mM QCP; 10 mM amino acids
Procedure: Walls of small intestinal mucosa from mice are inserted into an Ussing chamber and transepitehial currents are measured that are induced by addition of 10 mM of various amino acids to the mucosal side.

Chain of hOCT2 (O15244 whole entry): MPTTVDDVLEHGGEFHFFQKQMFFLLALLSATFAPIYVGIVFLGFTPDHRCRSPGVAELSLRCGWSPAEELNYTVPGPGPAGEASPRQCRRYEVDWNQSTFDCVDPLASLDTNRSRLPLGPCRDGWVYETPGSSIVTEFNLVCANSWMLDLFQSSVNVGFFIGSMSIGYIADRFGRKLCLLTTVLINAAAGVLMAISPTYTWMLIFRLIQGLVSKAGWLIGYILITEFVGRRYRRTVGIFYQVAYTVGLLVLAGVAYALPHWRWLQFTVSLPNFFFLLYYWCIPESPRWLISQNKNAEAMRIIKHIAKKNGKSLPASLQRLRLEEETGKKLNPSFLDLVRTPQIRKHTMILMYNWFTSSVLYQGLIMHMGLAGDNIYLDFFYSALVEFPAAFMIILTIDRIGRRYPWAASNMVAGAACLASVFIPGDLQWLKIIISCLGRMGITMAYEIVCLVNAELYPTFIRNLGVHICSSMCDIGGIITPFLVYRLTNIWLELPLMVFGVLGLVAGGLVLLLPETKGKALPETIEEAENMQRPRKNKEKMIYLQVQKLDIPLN

## Glutamine-Cysteine-Proline [QCP]
[1]
  hOCT2 expressed [14C]TEA uptake after injection: appears not to be inhibited
[2]
  effect on glucose uptake expressed by rbSGLT1: same effect
[3]
  transepithelial glucose flux: inhibits transepithelial glucose flux
[4]
  body weight after feeding: body weight is reduced
[5]
  inward current in control oocytes not injected with hPEP1-cRNA: no inward currents
  inward current induced in oocytes expressing hPEPT1: significant inward currents
[6]
  effect on AMG uptake in oocytes in which hSGLT1 but not hPEPT1 was expressed: no effect
  inhibition of [14C]AMG uptake in oocytes expressing hSGLT1 plus hPEPT1: about 50%
[7]
  inhibition of AMG uptake in the absence of BTXB: inhibited
  inhibition of AMG uptake in the presence of BTXB: no significant inhibition
  inhibition of glucose uptake expressed by hSGLT1: about 50%
  inhibition of hSGLT1 expressed AMG uptake: 35-40%
  inhibition of hSGLT1 expressed AMG uptake after stimulation of protein kinase C: not changed
  inhibition of hSGLT1 expressed AMG uptake with coexpressed dominant negative mutant of dynamin I: not changed
  inhibition of hSGLT1 expressed uptake of AMG after 3 h: 60%
  inhibition of hSGLT1 expressed uptake of AMG after 5 h: about 40%
  inhibition of hSGLT1 expressed uptake of AMG after 10 h: 20-30%
  inhibition of hSGLT1 in dependence of intracellular monosaccharide concentration: inhibits hSGLT1 at low or high concentrations of intracellular monosaccharides
  inhibitory effect on expression of hSGLT1 when the exocytotic pathway is blocked: could be prevented
  intracellular concentration of QCP giving 35-40% inhibition of hSGLT1 expressed glucose uptake: below 5 nM
[8]
  transepithelial flux of amino acids: inhibits transepithelial flux of amino acids
